This passage reports IC50 results from patent publication US12145947B2, “Pyrimidine based modulators and uses thereof” (Quanta Therapeutics, Inc., priority 2022, dated 2024).

pIC50: −log10 of the molar value.

One test deals with T1, KRAS G12D/RAF1 (Homo sapiens, UniProt P01116, G12D).
T1 construct: His6-MBP (N, cleaved yes); made in house; host or cells: E. coli
Kind of test: Protein-protein interaction (PPI) HTRF assay KRAS G12D/RAF1. The format is binding. The note with it: Table 4. The procedure, abridged: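 Biotinylated human KRAS (1-169; wt, G12D, G12V) or wt NRAS, GppNHp-loaded, pre-incubated 30 min RT with compound and streptavidin-d2, then His-RAF1 RBD (52-131) with anti-6His Tb cryptate added for 1 h RT. HTRF 665/615 ratio normalized to no compound (0%) and untagged RAF1 (100%); IC50.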
Background: Time-resolved FRET reads energy transfer from a long-lived donor to a nearby acceptor.

In test [1] the test system is GP2D cells (KRAS G12D), phospho-ERK. In words: pERK In Cell Western (ICW) assay, GP2D cells. The format is cell-based. The note with it: Table 4, 3 hours. The method in brief: (§1)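 GP2D (10,000 cells/well) and AGS (5,000 cells/well) cells were treated for 3 h at 37 °C with a 10-point, ½-log dilution series (top […]). They were then fixed and immunostained for phospho-ERK. pERK signal was normalised to DRAQ5 and expressed as % of DMSO, with IC50 from a 4-parameter fit.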

Test [2] deals with AGS cells (KRAS G12D), phospho-ERK. Kind of test: pERK In Cell Western (ICW) assay (Method B), AGS cells. The format is cell-based. The settings on record: Homo sapiens, Table 4, pERK, 3 hours, read-out: ICW-AGS. The method in brief: as §1

T1 sequence (P01116 with tags, fused parts or gaps isoform P01116-2 G12D): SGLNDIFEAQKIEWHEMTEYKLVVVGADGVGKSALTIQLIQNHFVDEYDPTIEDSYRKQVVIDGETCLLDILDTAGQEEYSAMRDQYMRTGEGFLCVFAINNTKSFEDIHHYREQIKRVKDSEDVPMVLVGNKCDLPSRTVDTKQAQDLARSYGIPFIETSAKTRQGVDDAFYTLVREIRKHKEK

As for `CN1CCN(CC2(COc3nc(N4C[C@H]5CC[C@@H](C4)N5)c(C#N)c(N4CC5(CCc6sc(N)c(C#N)c65)C4)n3)CC2)CC1=O` [Compound 80, 2-amino-1′-[5-cyano-2-[[1-[(4-methyl-3-oxo-piperazin-1-yl)methyl]cyclopropyl]methoxy]-6-[(1R,5S)-3,8-diazabicyclo[3.2.1]octan-3-yl]pyrimidin-4-yl]spiro[5,6-dihydrocyclopenta[b]thiophene-4,3′-azetidine]-3-carbonitrile], the pIC50 against KRAS G12D/RAF1 was 6.00 to 7.00; in test [1] it was 8.00 to 9.00; in test [2], 7.00 to 8.00.

Consider `CO[C@H]1CN(CC2(COc3nc(N4C[C@H]5CC[C@@H](C4)N5)c(C#N)c(N4CC5(CCc6sc(N)c(C#N)c65)C4)n3)CC2)C[C@@H]1F` [Compound 81, 2-amino-1′-[5-cyano-6-[(1R,5S)-3,8-diazabicyclo[3.2.1]octan-3-yl]-2-[[1-[[(3S,4S)-3-fluoro-4-methoxy-pyrrolidin-1-yl]methyl]cyclopropyl]methoxy]pyrimidin-4-yl]spiro[5,6-dihydrocyclopenta[b]thiophene-4,3′-azetidine]-3-carbonitrile], for which the pIC50 against KRAS G12D/RAF1 is 5.00 to 6.00; in test [1], 7.00 to 8.00; in test [2], 6.00 to 7.00.

Take `Cc1nc(-c2nn3c(c2Cl)CN(c2nc(OC[C@@]45CCCN4C[C@H](F)C5)nc(N4CC5(CCc6sc(N)c(C#N)c65)C4)c2C#N)CCC3)n(C)n1` [Compound 85, 2-amino-1′-[6-[3-chloro-2-(2,5-dimethyl-1,2,4-triazol-3-yl)-4,6,7,8-tetrahydropyrazolo[1,5-a][1,4]diazepin-5-yl]-5-cyano-2-[[(2R,8S)-2-fluoro-1,2,3,5,6,7-hexahydropyrrolizin-8-yl]methoxy]pyrimidin-4-yl]spiro[5,6-dihydrocyclopenta[b]thiophene-4,3′-azetidine]-3-carbonitrile]: the pIC50 against KRAS G12D/RAF1 was 4.00 to 5.00; in test [1], 7.00 to 8.00; in test [2], 6.00 to 7.00.

For `N#Cc1c(N2C[C@H]3CC[C@@H](C2)N3)nc(OCC2(CN3CCOCC3)CC2)nc1N1CC2(C=CCc3sc(N)c(C#N)c32)C1` [Compound 86, 2-amino-1′-[5-cyano-2-[[1-(morpholinomethyl)cyclopropyl]methoxy]-6-[(1R,5S)-3,8-diazabicyclo[3.2.1]octan-3-yl]pyrimidin-4-yl]spiro[7H-benzothiophene-4,3′-azetidine]-3-carbonitrile], the pIC50 was more than 7.00 against KRAS G12D/RAF1, 8.00 to 9.00 in test [1] and 7.00 to 8.00 in test [2].

For `CN(C)CC1(COc2nc(N3CCCn4nc(C(=O)N(C)C)c(Cl)c4C3)c(C#N)c(N3CC4(CCc5sc(N)c(C#N)c54)C3)n2)CC1(F)F` (stereo not drawn) [Compound 87, 5-[6-(2-amino-3-cyano-spiro[5,6-dihydrocyclopenta[b]thiophene-4,3′-azetidine]-1′-yl)-5-cyano-2-[[1-[(dimethylamino)methyl]-2,2-difluoro-cyclopropyl]methoxy]pyrimidin-4-yl]-3-chloro-N,N-dimethyl-4,6,7,8-tetrahydropyrazolo[1,5-a][1,4]diazepine-2-carboxamide], the pIC50 at KRAS G12D/RAF1 is 5.00 to 6.00; in test [1], 8.00 to 9.00; in test [2], 7.00 to 8.00.

Turning to `C[C@H](Oc1nc(N2C[C@H]3CC[C@@H](C2)N3)c(C#N)c(N2CC3(CCc4sc(N)c(C#N)c43)C2)n1)[C@@H]1CCCN1C` [Compound 88, 2-amino-1′-[5-cyano-6-[(1R,5S)-3,8-diazabicyclo[3.2.1]octan-3-yl]-2-[(1S)-1-[(2S)-1-methylpyrrolidin-2-yl]ethoxy]pyrimidin-4-yl]spiro[5,6-dihydrocyclopenta[b]thiophene-4,3′-azetidine]-3-carbonitrile], the pIC50 was 4.00 to 5.00 against KRAS G12D/RAF1, 5.00 to 6.00 in test [1] and 5.00 to 6.00 in test [2].

Regarding `N#Cc1c(N2C[C@H]3CC[C@@H](C2)N3)nc(OCC2(CN3C[C@@H]4C[C@H]3CO4)CC2)nc1N1CC2(CCc3sc(N)c(C#N)c32)C1` [Compound 89, 2-amino-1′-[5-cyano-6-[(1R,5S)-3,8-diazabicyclo[3.2.1]octan-3-yl]-2-[[1-[[(1S,4S)-2-oxa-5-azabicyclo[2.2.1]heptan-5-yl]methyl]cyclopropyl]methoxy]pyrimidin-4-yl]spiro[5,6-dihydrocyclopenta[b]thiophene-4,3′-azetidine]-3-carbonitrile], the pIC50 against KRAS G12D/RAF1 was 6.00 to 7.00; in test [1], 7.00 to 8.00; in test [2], 7.00 to 8.00.

For the molecule `CN(C)C(=O)c1nn2c(c1Cl)CN(c1nc(OC[C@@]34CCCN3C[C@H](F)C4)nc(N3CC4(CCc5sc(N)c(C#N)c54)C3)c1C#N)CC(F)(F)C2` [Compound 91, 5-[6-(2-amino-3-cyano-spiro[5,6-dihydrocyclopenta[b]thiophene-4,3′-azetidine]-1′-yl)-5-cyano-2-[[(2R,8S)-2-fluoro-1,2,3,5,6,7-hexahydropyrrolizin-8-yl]methoxy]pyrimidin-4-yl]-3-chloro-7,7-difluoro-N,N-dimethyl-6,8-dihydro-4H-pyrazolo[1,5-a][1,4]diazepine-2-carboxamide], the pIC50 at KRAS G12D/RAF1 is 6.00 to 7.00; in test [1], 7.00 to 8.00; in test [2], 7.00 to 8.00.
